Entries after “also recorded” stand apart in the source; their conditions may differ.
What was measured:
[1] = mass balance study in humans; cited from earlier work
fasting glucose = test: Example 3: fasting glucose, change from baseline to week 12; assay type: in vivo, human
Haemoglobin A1C = test: Example 3: haemoglobin A1C, change from baseline to week 12; assay type: in vivo, human
post-menopausal women = test: Example 3: severity of moderate to severe VMS; assay type: in vivo, human; details: 15 mg and 20 mg vs placebo; weeks 4 and 12 (FIG. 12)
Method: A further clinical study was designed to evaluate the effect of 15 or 20 mg estetrol (E4) monohydrate, or placebo on the severity and frequency of vasomotor symptoms (VMS) and the safety of E4 20 mg. The inclusion and exclusion criteria as described for Example 2 were maintained for the present Example (i.e. Example 3).
• 1. Mean change in weekly frequency of moderate to severe vasomotor symptoms (VMS) from Baseline to Week 4 (Efficacy Study Part) [Time Frame: Baseline and Week 4]: • The weekly frequency of moderate to severe VMS at Baseline and Week 4 is defined as the total number (sum) of all recorded moderate to severe VMS experienced during the last 7 consecutive days prior randomization for Baseline and at Week 4. Mean change=mean weekly frequency at Week 4-mean weekly frequency at Baseline. • 2. Mean change in weekly frequency of moderate to severe vasomotor symptoms (VMS) from Baseline to Week 12 (Efficacy Study Part) [Time Frame: Baseline and Week 12] • The weekly frequency of moderate to severe VMS at Baseline and Week 12 is defined as the total number (sum) of all recorded moderate to severe VMS experienced during the last 7 consecutive days prior randomization for Baseline and at Week 12. Mean change=mean weekly frequency at Week 12-mean weekly frequency at Baseline. • 3. […]

[2] = 15 mg and 20 mg, after 12 weeks, monohydrate

Row | SMILES | contribution of hepatic elimination to the overall elimination [1] | fasting glucose levels (fasting glucose; [2]) | Fasting Glucose, mean (fasting glucose; 15 mg, Baseline) | Fasting Glucose, mean (fasting glucose; 15 mg, Week 12) | Fasting Glucose, mean (fasting glucose; 20 mg, Baseline) | Fasting Glucose, mean (fasting glucose; 20 mg, Week 12) | haemoglobin A1C levels (Haemoglobin A1C; [2]) | Haemoglobin A1C, mean (Haemoglobin A1C; 15 mg, Baseline) | Haemoglobin A1C, mean (Haemoglobin A1C; 15 mg, Week 12) | Haemoglobin A1C, mean (Haemoglobin A1C; 20 mg, Baseline) | Haemoglobin A1C, mean (Haemoglobin A1C; 20 mg, Week 12) | severity of moderate to severe VMS (post-menopausal women)
1 | C[C@]12CC[C@@H]3c4ccc(O)cc4CC[C@H]3[C@@H]1[C@@H](O)[C@@H](O)[C@@H]2O [E4, 1,3,5 (10)-estratrien-3,15alpha, 16alpha, 17beta-tetrol] | approximately 20% |  |  |  |  |  |  |  |  |  |  | 
2 | C[C@]12CC[C@@H]3c4ccc(O)cc4CC[C@H]3[C@@H]1[C@@H](O)[C@@H](O)[C@@H]2O [E4 monohydrate, estetrol monohydrate] |  | decreased; also recorded: reduced | 5.156 | 5.057 | 5.177 | 5.057 | decreased; also recorded: reduced | 5.625 | 5.504 | 5.605 | 5.458 | significantly decreased
